Source: patent US20220282304A1, “SAME-SAMPLE ANTIBIOTIC SUSCEPTIBILITY TEST AND RELATED COMPOSITIONS, METHODS AND SYSTEMS” (CALIFORNIA INSTITUTE OF TECHNOLOGY, priority 2021, published 2022)

Test system: Escherichia coli isolate
Experiment: Digital same-sample filtration AST, one treated and one concurrent reference condition (Example 5)
Type: cell-based
Conditions: 1.0 μg/mL ETP; for lysed cells detected: all detected treated cells lysed
Experimental: The inoculum was small enough that no detectable difference in the sample's optical density at 600 mm (OD600) was detectable by a spectrophotometer with a sensitivity of 0.01 absorbance units. After an incubation at 37° C., the media became turbid with an OD600 of 0.18 absorbance units after 3 hours of incubation.
In this experiment, the number and volume of sample partitions was restricted, for logistical reasons, to 96 partitions 10 μL, in volume, specifically the wells of a 96-well plate. A goal was chosen of having a >98% chance of ending up with at least 48 empty partitions. When all partitions are the same volume, the following formula relates the expected number of empty partitions, the partition volume, and the density of cells.
N is the total number of partitions, n is the number of empty partitions, V is the partition volume, D is the density of cells, and t is a threshold probability chosen by the practitioner. Thus, in order to achieve digital sample partitioning with the available 96-well plate, the contrived clinical specimen was diluted to a cell density of 0.0375 cells/μL. Each 10 μL sample of the specimen would then contain 0.375 cells on average.
To begin the AST protocol, the contrived clinical specimen was physically split into the 96 partitions by transferring 10 μL of the sample, in 96 separate transfers (actually 12 transfers with a multichannel pipette), to 96 wells of a microtiter plate. Each well contained 15 μL of Mueller-Hinton Broth (MHB) growth media. Half of the wells (48) contained 0 μg/mL of dissolved ETP antibiotic and served as reference condition antibiotic exposures. The other half of the wells contained 1.67 μg/mL of ETP (for a final concentration of 1.0 μg/mL) and served as 48 treated condition antibiotic exposures. The 96 antibiotic exposures were incubated at 37° C. for 70 minutes.
The entire volume of each antibiotic exposure was transferred to a Millipore® 96-well sterile polystyrene MultiScreenHTS® filter plate (Millipore-Sigma MSGVS2210). Each well of the filter plate contained a hydrophilic polyvinylidene fluoride (PVDF) filter membrane with a 0.22 μm pore size. The antibiotic exposures were centrifuged at 2200 relative centrifugal force to speed the passage of the antibiotic exposure through the filter and into 96 collecting vessels. The collected fluid was called the “filtrate.”
50 μL of fresh MHB media was spun through the filters after the first centrifugation (above) to wash away residual extracellular nucleic acids present in the fluid wetting the filters. This wash fluid is not collected with the filtrates.
10 μL of each of the filtrates was added to and mixed with 10 μL of Lucigen DNA Extraction Buffer, heated to 65° C. for 6 minutes, then heated to 98° C. for 4 minutes.
20 μL of DNA Extraction Buffer was placed on top of the filters. The filter plate was heated to 65° C. for 6 minutes, shaking at 700 rpm, on a ThermoMixer® flat surface heating block. Then, the filter plate was taped to a clean 96-well polypropylene microtiter plate and centrifuged at 2000 rcf for 2 minutes. The DNA Extraction Buffer fluid that flowed through the filter was collected in the microtiter plate below the filter plate. Next, the microtiter plate was heated to 98° C. for 4 minutes inside a BioRad thermocycler. These collected and heated fluid volumes are termed the “lysates” which comprise intracellular nucleic acid.
Separately, for each of the 96 extracted filtrates and for each of the 96 extracted lysates, 1.00 μL of the extracted filtrate was mixed with 0.02 μL of 3 U/mL Lucigen® RapiDxFire thermostable reverse transcriptase, 0.2 μL of Lucigen® RapiDxFire 10× thermostable buffer, 0.1 μL of 10 mM deoxyribonucleic acid nucleotides, 0.6 μL of deionized water, and 0.08 μL of a 10 μM aqueous solution of DNA primer, according to manufacturer's instructions, to create a reverse transcription reaction with a total volume of 2.0 μL. […]

## C[C@@H](O)[C@H]1C(=O)N2C(C(=O)O)=C(S[C@@H]3CN[C@H](C(=O)Nc4cccc(C(=O)O)c4)C3)[C@H](C)[C@H]12 [ETP, ertapenem]
70 minutes 37° C., qPCR 23S rRNA, 96 partitions
  percent extracellular of detected antibiotic-treated cells (lysis): 100%
70 minutes, ddPCR
  susceptibility call (Fisher's exact test): susceptible
70 minutes, ddPCR 23S rRNA, 56 of the 96 partitions
  percent extracellular of detected antibiotic-treated cells (lysis): 100%
70 minutes, ddPCR, 56 of the 96 partitions
  lysed cells detected: 9
70 minutes, qPCR
  susceptibility call (Fisher's exact test): susceptible
70 minutes, qPCR, of the 96 partitions
  lysed cells detected: 19
